Our source for the IC50 values is US10150755B2, “ASK1 inhibitor compounds and uses thereof” (Seal Rock Therapeutics, Inc., priority 2017, dated 2018).

The test system of experiment [1] is LPS-induced TNFalpha in Human PBMCs. In words: Inhibition of LPS-induced TNFalpha in Human PBMCs. The class given is cell-based. As to conditions: PBMC, 100 ng/ml LPS, 6 hr, read-out: TNFa Inhibition IC50. How it is done: Cryopreserved human PBMCs were obtained from AllCells (cat# PB003F). After thawing/dilution protocols using RPMI medium supplemented with 5% FBS (heat inactivated), 100 ul/well of 1×10^6 cells/ml were plated into 96 well tissue culture plates (Corning). Cells were then pre-incubated for 1 hr at 37° C. in humidified 5% CO2 and 95% air with test compounds diluted in DMSO (final DMSO concentration 0.3%). Each compound was tested at 10 concentrations in duplicate wells. After the pre-incubation, 100 ng/ml LPS (E. Coli; Sigma) in RPMI media with 5% FBS was added for a 6 hr incubation at 37° C. in humidified 5% CO2 and 95% air. Controls on each plate included cells and LPS only, cells and media only (no LPS), and media only. After the 6 hr incubation, plates were centrifuged and the supernatants transferred to a new plate and frozen for subsequent TNFalpha analysis. Human TNFalpha was analyzed by ELISA according to the manufacturer's instructions (BD Sciences, BD OptEIA™ Cat#550610) and analyzed on a SpectraMax M series (Molecular Devices) microplate reader at OD 450 nm. IC50s were calculated using XLFit4 curve fitting software (IDBS) and a 4-parameter one-site sigmoid dose response fit.

The target of experiment [2] is ASK1 (Homo sapiens (Human), UniProt Q99683). Description: ASK1 Kinase Assay (Promega ASK1 Kinase Enzyme System, ADP-Glo). Particulars: enzyme 50 nM, ATP 10 μM. The class given is biochemical.
Sequence of ASK1 (Q99683 649-946 limits assumed): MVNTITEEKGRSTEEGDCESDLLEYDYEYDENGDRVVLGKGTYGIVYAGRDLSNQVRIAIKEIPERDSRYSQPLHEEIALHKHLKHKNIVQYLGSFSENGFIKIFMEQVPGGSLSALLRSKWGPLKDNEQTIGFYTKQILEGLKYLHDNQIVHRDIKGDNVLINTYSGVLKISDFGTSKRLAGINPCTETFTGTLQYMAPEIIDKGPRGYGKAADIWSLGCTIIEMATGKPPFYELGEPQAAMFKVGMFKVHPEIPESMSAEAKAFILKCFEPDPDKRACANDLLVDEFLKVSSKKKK

Consider `CC(C)Oc1cc2c(cc1-c1cccnc1)C(=O)N(c1cccc(-c3nncn3C3CC3)n1)C2` [Compound 68, 2-(6-(4-cyclopropyl-4H-1,2,4-triazol-3-yl)pyridin-2-yl)-5-isopropoxy-6-(pyridin-3-yl)isoindolin-1-one], for which the IC50 was below 2 µM in experiment [1] and below 0.2 µM in experiment [2].

In the case of `O=C1c2cc(-c3cccnc3)c(OC3CCCC3)cc2CN1c1cccc(-c2nncn2C2CC2)n1` [Compound 69, 5-(Cyclopentyloxy)-2-(6-(4-cyclopropyl-4H-1,2,4-triazol-3-yl)pyridin-2-yl)-6-(pyridin-3-yl)isoindolin-1-one], the results for the IC50 in experiment [1] and in experiment [2] were below 2 µM and below 0.2 µM, respectively.

Turning to `O=C(c1cc2c(cc1-c1cccnc1)C(=O)N(c1cccc(-c3nncn3C3CC3)n1)C2)N1CCCC1` [Compound 71, 2-(6-(4-cyclopropyl-4H-1,2,4-triazol-3-yl)pyridin-2-yl)-6-(pyridin-3-yl)-5-(pyrrolidine-1-carbonyl)isoindolin-1-one], the results for the IC50 in experiment [1] and in experiment [2] were 2 to 10 µM and below 0.2 µM, respectively.

Usually IC50 stands for the concentration that gives 50% inhibition.
